Key:
Experiment in all cases: Glasshouse herbicide test, pre- and post-emergence
Format in all cases: in vivo
Avena fatua (AVEFA) = settings: 250 g/h, evaluated after 13 days, five-point scale; for percentage damage caused to the plant, AVEFA POST: post-emergence; for percentage damage caused to the plant, AVEFA PRE: pre-emergence
Protocol: (§1) Seeds of a variety of test species are sown in standard soil in pots (Lolium perenne (LOLPE), Setaria faberi (SETFA), Alopecurus myosuroides (ALOMY), Echinochloa crus-galli (ECHCG), Avena fatua (AVEFA)). After cultivation for one day (pre-emergence) or after 8 days cultivation (post-emergence) under controlled conditions in a glasshouse (at 24/16° C., day/night; 14 hours light; 65% humidity), the plants are sprayed with an aqueous spray solution derived from the formulation of the technical active ingredient in acetone/water (50:50) solution containing 0.5% Tween 20 (polyoxyethelyene sorbitan monolaurate, CAS RN 9005-64-5). Compounds are applied at 250 g/h. The test plants are then grown in a glasshouse under controlled conditions in a glasshouse (at 24/16° C., day/night; 14 hours light; 65% humidity) and watered twice daily. After 13 days for pre and post-emergence, the test is evaluated for the percentage damage caused to the plant. The biological activities are shown in the following table on a five-point scale (5=80-100%; 4=60-79%; 3=40-59%; 2=20-39%; 1=0-19%).

[1] = test system: Echinochloa crus-galli (ECHCG); settings: 250 g/h, evaluated after 13 days, five-point scale; for percentage damage caused to the plant, ECHCG POST: post-emergence; for percentage damage caused to the plant, ECHCG PRE: pre-emergence
Protocol: as §1

Setaria faberi (SETFA) = settings: 250 g/h, evaluated after 13 days, five-point scale; for percentage damage caused to the plant, SETFA POST: post-emergence; for percentage damage caused to the plant, SETFA PRE: pre-emergence
Protocol: as §1

Lolium perenne (LOLPE) = settings: 250 g/h, evaluated after 13 days, five-point scale; for percentage damage caused to the plant, LOLPE POST: post-emergence; for percentage damage caused to the plant, LOLPE PRE: pre-emergence
Protocol: as §1

[2] = test system: Alopecurus myosuroides (ALOMY); settings: 250 g/h, evaluated after 13 days, five-point scale; for percentage damage caused to the plant, ALOMY POST: post-emergence; for percentage damage caused to the plant, ALOMY PRE: pre-emergence
Protocol: as §1

## CC#Cc1cc(C)c(C2C(=O)CC3(CCC(C(=O)N4CCS(=O)(=O)CC4)CC3)CC2=O)c(C)c1 (centres unmarked) [Compound 1.007]
Avena fatua (AVEFA)
  percentage damage caused to the plant, AVEFA POST: 5 (5=80-100%)
  percentage damage caused to the plant, AVEFA PRE: 3 (3=40-59%)
[1]
  percentage damage caused to the plant, ECHCG POST: 5 (5=80-100%)
  percentage damage caused to the plant, ECHCG PRE: 5 (5=80-100%)
Setaria faberi (SETFA)
  percentage damage caused to the plant, SETFA POST: 5 (5=80-100%)
  percentage damage caused to the plant, SETFA PRE: 4 (4=60-79%)
Lolium perenne (LOLPE)
  percentage damage caused to the plant, LOLPE POST: 5 (5=80-100%)
  percentage damage caused to the plant, LOLPE PRE: 5 (5=80-100%)
[2]
  percentage damage caused to the plant, ALOMY POST: 5 (5=80-100%)
  percentage damage caused to the plant, ALOMY PRE: 3 (3=40-59%)

## Cc1cc(-c2ccc(C#N)cn2)cc(C)c1C1C(=O)CC2(CCC(C(=O)N(C)C)CC2)CC1=O (centres unmarked) [Compound 1.021]
Avena fatua (AVEFA)
  percentage damage caused to the plant, AVEFA POST: 5 (5=80-100%)
  percentage damage caused to the plant, AVEFA PRE: 2 (2=20-39%)
[1]
  percentage damage caused to the plant, ECHCG POST: 5 (5=80-100%)
  percentage damage caused to the plant, ECHCG PRE: 5 (5=80-100%)
Setaria faberi (SETFA)
  percentage damage caused to the plant, SETFA POST: 5 (5=80-100%)
  percentage damage caused to the plant, SETFA PRE: 4 (4=60-79%)
Lolium perenne (LOLPE)
  percentage damage caused to the plant, LOLPE POST: 5 (5=80-100%)
  percentage damage caused to the plant, LOLPE PRE: 4 (4=60-79%)
[2]
  percentage damage caused to the plant, ALOMY POST: 5 (5=80-100%)
  percentage damage caused to the plant, ALOMY PRE: 4 (4=60-79%)

## CC#Cc1cc(C)c(C2C(=O)CC3(CCC(NC(=O)NC(=O)c4ccccn4)CC3)CC2=O)c(C)c1 (centres unmarked) [Compound 2.023]
Avena fatua (AVEFA)
  percentage damage caused to the plant, AVEFA POST: 5 (5=80-100%)
  percentage damage caused to the plant, AVEFA PRE: 4 (4=60-79%)
[1]
  percentage damage caused to the plant, ECHCG POST: 5 (5=80-100%)
  percentage damage caused to the plant, ECHCG PRE: 5 (5=80-100%)
Setaria faberi (SETFA)
  percentage damage caused to the plant, SETFA POST: 5 (5=80-100%)
  percentage damage caused to the plant, SETFA PRE: 5 (5=80-100%)
Lolium perenne (LOLPE)
  percentage damage caused to the plant, LOLPE POST: 5 (5=80-100%)
  percentage damage caused to the plant, LOLPE PRE: 5 (5=80-100%)
[2]
  percentage damage caused to the plant, ALOMY POST: 5 (5=80-100%)
  percentage damage caused to the plant, ALOMY PRE: 5 (5=80-100%)

## CC#Cc1cc(C)c(C2C(=O)CC3(CCC(NC(=O)CCC#N)CC3)CC2=O)c(C)c1 (centres unmarked) [Compound 2.013]
Avena fatua (AVEFA)
  percentage damage caused to the plant, AVEFA POST: 5 (5=80-100%)
  percentage damage caused to the plant, AVEFA PRE: 5 (5=80-100%)
[1]
  percentage damage caused to the plant, ECHCG POST: 5 (5=80-100%)
  percentage damage caused to the plant, ECHCG PRE: 5 (5=80-100%)
Setaria faberi (SETFA)
  percentage damage caused to the plant, SETFA POST: 5 (5=80-100%)
  percentage damage caused to the plant, SETFA PRE: 5 (5=80-100%)
Lolium perenne (LOLPE)
  percentage damage caused to the plant, LOLPE POST: 5 (5=80-100%)
  percentage damage caused to the plant, LOLPE PRE: 5 (5=80-100%)
[2]
  percentage damage caused to the plant, ALOMY POST: 5 (5=80-100%)
  percentage damage caused to the plant, ALOMY PRE: 3 (3=40-59%)

## CC#Cc1cc(C)c(C2C(=O)CC3(CCC(C(=O)NC)CC3)CC2=O)c(C)c1 (centres unmarked) [Compound 1.002, 3-(2,6-dimethyl-4-prop-1-ynyl-phenyl)-N-methyl-2,4-dioxo-spiro[5.5]undecane-9-carboxamide]
Avena fatua (AVEFA)
  percentage damage caused to the plant, AVEFA POST: 5 (5=80-100%)
  percentage damage caused to the plant, AVEFA PRE: 5 (5=80-100%)
[1]
  percentage damage caused to the plant, ECHCG POST: 5 (5=80-100%)
  percentage damage caused to the plant, ECHCG PRE: 5 (5=80-100%)
Setaria faberi (SETFA)
  percentage damage caused to the plant, SETFA POST: 5 (5=80-100%)
  percentage damage caused to the plant, SETFA PRE: 5 (5=80-100%)
Lolium perenne (LOLPE)
  percentage damage caused to the plant, LOLPE POST: 5 (5=80-100%)
  percentage damage caused to the plant, LOLPE PRE: 5 (5=80-100%)
[2]
  percentage damage caused to the plant, ALOMY POST: 5 (5=80-100%)
  percentage damage caused to the plant, ALOMY PRE: 5 (5=80-100%)

## CNC(=O)C1CCC2(CC1)CC(=O)C(c1c(C)cc(-c3ncc(F)cc3F)cc1C)C(=O)C2 (centres unmarked) [Compound 1.023]
Avena fatua (AVEFA)
  percentage damage caused to the plant, AVEFA POST: 5 (5=80-100%)
  percentage damage caused to the plant, AVEFA PRE: 5 (5=80-100%)
[1]
  percentage damage caused to the plant, ECHCG POST: 5 (5=80-100%)
  percentage damage caused to the plant, ECHCG PRE: 5 (5=80-100%)
Setaria faberi (SETFA)
  percentage damage caused to the plant, SETFA POST: 5 (5=80-100%)
  percentage damage caused to the plant, SETFA PRE: 5 (5=80-100%)
Lolium perenne (LOLPE)
  percentage damage caused to the plant, LOLPE POST: 5 (5=80-100%)
  percentage damage caused to the plant, LOLPE PRE: 5 (5=80-100%)
[2]
  percentage damage caused to the plant, ALOMY POST: 5 (5=80-100%)
  percentage damage caused to the plant, ALOMY PRE: 5 (5=80-100%)

## CC#Cc1cc(C)c(C2C(=O)CC3(CCC(NC(=O)NC(=O)C(C)(C)C)CC3)CC2=O)c(C)c1 (centres unmarked) [Compound 2.022]
Avena fatua (AVEFA)
  percentage damage caused to the plant, AVEFA POST: 5 (5=80-100%)
  percentage damage caused to the plant, AVEFA PRE: 3 (3=40-59%)
[1]
  percentage damage caused to the plant, ECHCG POST: 5 (5=80-100%)
  percentage damage caused to the plant, ECHCG PRE: 5 (5=80-100%)
Setaria faberi (SETFA)
  percentage damage caused to the plant, SETFA POST: 5 (5=80-100%)
  percentage damage caused to the plant, SETFA PRE: 5 (5=80-100%)
Lolium perenne (LOLPE)
  percentage damage caused to the plant, LOLPE POST: 5 (5=80-100%)
  percentage damage caused to the plant, LOLPE PRE: 5 (5=80-100%)
[2]
  percentage damage caused to the plant, ALOMY POST: 5 (5=80-100%)
  percentage damage caused to the plant, ALOMY PRE: 5 (5=80-100%)

## CC#Cc1cc(C)c(C2C(=O)CC3(CCC(C(=O)NC)CC3)CC2=O)c(OC)c1 (centres unmarked) [Compound 1.016]
Avena fatua (AVEFA)
  percentage damage caused to the plant, AVEFA POST: 5 (5=80-100%)
  percentage damage caused to the plant, AVEFA PRE: 5 (5=80-100%)
[1]
  percentage damage caused to the plant, ECHCG POST: 5 (5=80-100%)
  percentage damage caused to the plant, ECHCG PRE: 5 (5=80-100%)
Setaria faberi (SETFA)
  percentage damage caused to the plant, SETFA POST: 5 (5=80-100%)
  percentage damage caused to the plant, SETFA PRE: 5 (5=80-100%)
Lolium perenne (LOLPE)
  percentage damage caused to the plant, LOLPE POST: 5 (5=80-100%)
  percentage damage caused to the plant, LOLPE PRE: 5 (5=80-100%)
[2]
  percentage damage caused to the plant, ALOMY POST: 5 (5=80-100%)
  percentage damage caused to the plant, ALOMY PRE: 5 (5=80-100%)

## Cc1cc(-c2ccc(C#N)cn2)cc(C)c1C1C(=O)CC2(CCC(NC(=O)C3CC3)CC2)CC1=O (centres unmarked) [Compound 2.029]
Avena fatua (AVEFA)
  percentage damage caused to the plant, AVEFA POST: 5 (5=80-100%)
  percentage damage caused to the plant, AVEFA PRE: 4 (4=60-79%)
[1]
  percentage damage caused to the plant, ECHCG POST: 5 (5=80-100%)
  percentage damage caused to the plant, ECHCG PRE: 5 (5=80-100%)
Setaria faberi (SETFA)
  percentage damage caused to the plant, SETFA POST: 5 (5=80-100%)
  percentage damage caused to the plant, SETFA PRE: 5 (5=80-100%)
Lolium perenne (LOLPE)
  percentage damage caused to the plant, LOLPE POST: 5 (5=80-100%)
  percentage damage caused to the plant, LOLPE PRE: 5 (5=80-100%)
[2]
  percentage damage caused to the plant, ALOMY POST: 5 (5=80-100%)
  percentage damage caused to the plant, ALOMY PRE: 2 (2=20-39%)

## CC#Cc1cc(C)c(C2C(=O)CC3(CCC(C(=O)NCCO)CC3)CC2=O)c(C)c1 (centres unmarked) [Compound 1.012]
Avena fatua (AVEFA)
  percentage damage caused to the plant, AVEFA POST: 4 (4=60-79%)
  percentage damage caused to the plant, AVEFA PRE: 4 (4=60-79%)
[1]
  percentage damage caused to the plant, ECHCG POST: 5 (5=80-100%)
  percentage damage caused to the plant, ECHCG PRE: 4 (4=60-79%)
Setaria faberi (SETFA)
  percentage damage caused to the plant, SETFA POST: 5 (5=80-100%)
  percentage damage caused to the plant, SETFA PRE: 4 (4=60-79%)
Lolium perenne (LOLPE)
  percentage damage caused to the plant, LOLPE POST: 4 (4=60-79%)
  percentage damage caused to the plant, LOLPE PRE: 4 (4=60-79%)
[2]
  percentage damage caused to the plant, ALOMY POST: 4 (4=60-79%)
  percentage damage caused to the plant, ALOMY PRE: 4 (4=60-79%)

## CNC(=O)C1CCC2(CC1)CC(=O)C(c1c(C)cc(-c3ccc(C#N)cn3)cc1C)C(=O)C2 (centres unmarked) [Compound 1.020]
Avena fatua (AVEFA)
  percentage damage caused to the plant, AVEFA POST: 5 (5=80-100%)
  percentage damage caused to the plant, AVEFA PRE: 5 (5=80-100%)
[1]
  percentage damage caused to the plant, ECHCG POST: 5 (5=80-100%)
  percentage damage caused to the plant, ECHCG PRE: 5 (5=80-100%)
Setaria faberi (SETFA)
  percentage damage caused to the plant, SETFA POST: 5 (5=80-100%)
  percentage damage caused to the plant, SETFA PRE: 5 (5=80-100%)
Lolium perenne (LOLPE)
  percentage damage caused to the plant, LOLPE POST: 5 (5=80-100%)
  percentage damage caused to the plant, LOLPE PRE: 5 (5=80-100%)
[2]
  percentage damage caused to the plant, ALOMY POST: 5 (5=80-100%)
  percentage damage caused to the plant, ALOMY PRE: 5 (5=80-100%)
